From paper PMC8640510 (Cell Death and Differentiation, 2021) come the findings set out here.

Entries after “also recorded” stand apart in the source; their conditions may differ.

The target of the test is SARS-CoV-2 NSP14/10 complex (ExoN activity) (Severe acute respiratory syndrome coronavirus 2, UniProt P0DTD1). Description: biochemical. It counts as biochemical.

Take `Cc1ccc2ccc(C(=O)O)c(O)c2n1` [#38]: the “NSP14/10-inhibitory activity (in words)” value is “no observed inhibition; also recorded: does not inhibit NSP14”.
The molecule `CC(C)=CCc1c(O)ccc(C(=O)/C=C/c2ccc(O)cc2)c1O` [#96, Isobavachalcone] returned an IC50 of 17.4 ± 1.39 µM.
On to `CC(C)=CCOc1ccc(/C=C/C(=O)c2ccc(OCC=C(C)C)cc2OCC(=O)O)cc1` [#102, Sofalcone, reference compound], for which half-maximal inhibition (IC50) was put at 22 ± 6.02 µM.
As for `C[C@@H]1CCO[C@H]2Cn3cc(C(=O)NCc4ccc(F)cc4F)c(=O)c(O)c3C(=O)N12` [Dolutegravir, reference compound], the “NSP14/10-inhibitory activity (in words)” value is “detectable NSP14/10-inhibitory activities”.
`O=C1Cc2ccccc2C(=O)N1O` [N-Hydroxy-isoquinoline-1,3-dione, reference compound]: the “NSP14/10-inhibitory activity (in words)” value is “detectable NSP14/10-inhibitory activities”.

In general, IC50 refers to the concentration needed to halve the response being measured.
